Results: ChEMBL document CHEMBL3244339, “Antitumor 1-(X-aryl)-3,3-dialkyltriazenes. 1. Quantitative structure-activity relationships vs. L1210 leukemia in mice” (J Med Chem, 1978)

Legend:
[1] = Distribution coefficient, log P of the compound; format: physicochemical; details: octanol/water
L1210 = assay: Antitumor activity against mouse L1210 cells allografted in mouse assessed as increase of host lifespan; format: functional
Mus musculus = species: Mus musculus; assay: Toxicity in mouse L1210 cells allografted mouse assessed as mortality up to 5 days; format: organism-based; details: l1210, 120 h

Row | SMILES | log(1/C) (L1210) | also measured
1 | CN(C)/N=N/c1cc(C#N)cc(C#N)c1 | 2.78 | logP [1]: 2.18
2 | CCCCN(C)/N=N/c1ccc(CCC(=O)OCC)cc1 | 3.02 | –
3 | Cc1ccc(/N=N/N(C)C)cc1 | 3.76 | –
4 | CCCCN(C)/N=N/c1n[nH]cc1C(=O)OCC | 3.16 | –
5 | CC(=O)c1ccc(/N=N/N(C)C)cc1 | – | Activity (Mus musculus): Toxic
6 | CNN(C)/N=N/c1ccc(C(N)=O)cc1 | – | Activity (Mus musculus): Toxic
7 | CN(/N=N/c1ccc(C(N)=O)cc1)c1cccs1 | 2.9 | –
8 | CN(CCO)/N=N/c1ccccc1C#N | – | Activity (Mus musculus): Toxic
9 | COC(=O)c1[nH]cnc1/N=N/N(C)C | 3.86 | –
10 | C=CCN(C)/N=N/c1ccc(NC(N)=O)cc1 | 3.77 | –
11 | CN(C)/N=N/c1ccc(S(=O)(=O)Nc2ncccn2)cc1 | 3.74 | –
12 | CCCCN(C)/N=N/c1[nH]cnc1C(N)=O | 3.54 | –
13 | CCCCN(C)/N=N/c1n[nH]cc1C(N)=O | 3.81 | –
14 | CN(Cc1ccccc1)/N=N/c1ccccc1 | 3.03 | –
15 | CCCCN(C)/N=N/c1ccccc1C(=O)O | 3.15 | –
16 | CONC(=O)c1ccccc1/N=N/N(C)C | – | Activity (Mus musculus): Toxic
17 | CN(C)/N=N/c1n[nH]cc1C(N)=O | 3.49 | logP ([1]; read-out: logP): -0.12
18 | CN(C)/N=N/c1ccccc1C(=O)NCC#N | 3.22 | logP [1]: 1.79
19 | CCOC(=O)c1nc(C)[nH]c1/N=N/N(C)C | 3.35 | –
20 | CN(CC#N)/N=N/c1ccc(C(N)=O)cc1 | – | Activity (Mus musculus): Toxic
21 | CCCCN(C)/N=N/c1c(C(N)=O)n[nH]c1C | 3.83 | –
22 | CN(CCO)/N=N/c1ccccc1C(N)=O | 3.07 | –
23 | CN(CCc1ccccc1)/N=N/c1n[nH]cc1C(N)=O | 3.52 | –
24 | CN(C)/N=N/c1cccc(C(N)=O)c1 | 3.8 | –
25 | CCNC(=O)c1ccccc1/N=N/N(C)C | 2.92 | –

Row | SMILES | log(1/C) (L1210) | also measured
26 | CN(C)/N=N/c1ccc(S(N)(=O)=O)cc1 | 3.6 | logP [1]: 0.98
27 | C=CCN(C)/N=N/c1ccccc1C(N)=O | 3.43 | –
28 | CCCCN(C)/N=N/c1ccccc1C(N)=O | 3.1 | –
29 | CCN(C)/N=N/c1ccc(NC(N)=O)cc1 | 3.87 | –
30 | CN(C)/N=N/c1ccccc1C(=O)O | 3.64 | –
31 | CN/N=N/c1nc[nH]c1C(=O)N1CCCC1 | 3.28 | –
32 | CN(C)/N=N/c1cccc(Cl)c1 | – | Activity (Mus musculus): Toxic
33 | CN(C)/N=N/c1nc(Cc2ccccc2)[nH]c1C(N)=O | 2.89 | –
34 | CCOC(=O)c1c[nH]nc1/N=N/N(C)C | 3.35 | –
35 | CN(C)/N=N/c1cccc(NC(N)=O)c1 | – | Activity (Mus musculus): Toxic
36 | COc1ccc(/N=N/N(C)C)c(C(=O)O)c1 | – | Activity (Mus musculus): Toxic
37 | CN(C)/N=N/c1ccc(C(N)=O)cc1 | 3.51 | –
38 | CC(=O)Nc1ccc(/N=N/N(C)C)cc1 | 4.04 | –
39 | CN/N=N/c1ccc(C)cc1 | – | Activity (Mus musculus): Toxic
40 | C/N=N/Nc1ccccc1 | 3.6 | –
41 | CN(CCO)/N=N/c1n[nH]cc1C(N)=O | 3.1 | –
42 | CCOC(=O)c1ccc(/N=N/N(C)CC)cc1 | 3.01 | –
43 | CC(=O)c1cccc(/N=N/N(C)C)c1 | 3.58 | –
44 | C=CCN(CC=C)/N=N/c1ccc(C(N)=O)cc1 | – | Activity (Mus musculus): Toxic
45 | CN(C)/N=N/c1ccc(C(=O)O)cc1 | 3.22 | –
46 | CN/N=N/c1nc[nH]c1C(=O)OC | 3.35 | –
47 | CN(C)/N=N/c1cc(Cl)cc(C(N)=O)c1Cl | 3.04 | –
48 | Cc1[nH]nc(C(N)=O)c1/N=N/N(C)C | 3.84 | –
49 | CN(CCO)/N=N/c1[nH]cnc1C(N)=O | 3.12 | –
